Consider one substance from patent publication US7148026B2, “Dog melanin-concentrating hormone receptor” (Merck & Co., Inc., priority 2000, dated 2006).

In the assay the test system is dog MCH receptor. Nature of the assay: Aequorin bioluminescence assay in 293-AEQ17 cells transfected with dog MCH receptor. Type of assay: cell-based. The note with it: 293-AEQ17 cells transfected with dog MCH receptor plasmid; fractional response of aequorin luminescence; read-out: EC50 value for activation of the dog MCH receptor. The protocol:
Measurement of MCH receptor expression in the aequorin-expressing stable reporter cell line 293-AEQ17 (Button et al., 1993, Cell Calcium, 14, 663–671) was performed using a Luminoskan RT luminometer (Labsystems Inc., Gaithersburg, Md.) controlled by custom software written for a Macintosh PowerPC 6100. 293-AEQ17 cells (8×10^5 cells plated 18 hours before transfection in a T75 flask) were transfected with 22 μg of dog MCH receptor plasmid DNA: 264 μg lipofectamine.
Following approximately 40 hours of expression the apo-aequorin in the cells was charged for 4 hours with coelenterazine (10 μM) under reducing conditions (300 μM reduced glutathione) in ECB buffer (140 mM NaCl, 20 mM KCl, 20 mM HEPES-NaOH [pH=7.4], 5 mM glucose, 1 mM MgCl2, 1 mM CaCl2, 0.1 mg/ml bovine serum albumin). […] 100 μl of cell suspension (corresponding to 5×10^4 cells) was then injected into the test plate containing MCH, and the integrated light emission was recorded over 30 seconds, in 0.5 second units. 20 μL of lysis buffer (0.1% final Triton X-100 concentration) was then injected and the integrated light emission recorded over 10 seconds, in 0.5 second units.
The “fractional response” values for each well were calculated by taking the ratio of the integrated response to the initial challenge to the total integrated luminescence including the Triton X-100 lysis response. […]

Sequence of dog MCH receptor (as listed by the source): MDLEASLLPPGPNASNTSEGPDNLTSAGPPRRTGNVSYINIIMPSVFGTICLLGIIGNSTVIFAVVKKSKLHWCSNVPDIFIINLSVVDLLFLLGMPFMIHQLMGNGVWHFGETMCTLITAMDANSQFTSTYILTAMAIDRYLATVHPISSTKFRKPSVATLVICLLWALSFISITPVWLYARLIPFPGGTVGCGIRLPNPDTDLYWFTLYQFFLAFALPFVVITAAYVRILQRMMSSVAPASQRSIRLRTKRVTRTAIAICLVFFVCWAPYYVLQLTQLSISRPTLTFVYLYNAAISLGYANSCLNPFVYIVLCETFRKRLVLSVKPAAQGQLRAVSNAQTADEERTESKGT

Turning to Melanin-concentrating hormone [MCH], the concentration for a half-maximal effect (EC50) (usually the concentration at which the effect is half-maximal) was ~30 nM.
